Results published in paper PMC4766439, “Discovery of novel PDE9 inhibitors capable of inhibiting Aβ aggregation as potential candidates for the treatment of Alzheimer’s disease” (Scientific Reports, 2016).
Read-outs that look alike come from different tables or passages of the source.

What was measured:
PDE9A2 (181–506) = molecular target: T1, PDE9A2 (181–506) (Homo sapiens, UniProt O76083); experiment: PDE activity assay, PDE9 catalytic domain; assay type: biochemical; details: means ± SD of at least three independent experiments
T1 construct: PDE9A2 (181–506)
T1 sequence (O76083 241-566): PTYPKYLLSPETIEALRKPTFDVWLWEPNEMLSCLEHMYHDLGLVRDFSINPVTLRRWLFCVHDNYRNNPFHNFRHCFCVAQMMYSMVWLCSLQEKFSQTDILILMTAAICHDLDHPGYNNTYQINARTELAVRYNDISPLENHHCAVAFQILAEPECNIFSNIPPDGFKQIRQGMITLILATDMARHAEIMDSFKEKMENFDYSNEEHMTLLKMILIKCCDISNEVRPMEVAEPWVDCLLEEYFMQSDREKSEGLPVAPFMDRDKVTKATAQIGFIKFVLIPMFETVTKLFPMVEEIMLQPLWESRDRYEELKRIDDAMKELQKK
Method: (§1) The enzymatic activities of the catalytic domains of PDE9 and other PDEs were measured by using cGMP or cAMP as substrates. The assay buffer contained 20–50 mM Tris–HCl (pH 7.5–8.0), 10 mM MgCl2 or 4 mM MnCl2, 1 mM DTT, and 10–20 nM ^3H-cGMP or ^3H-cAMP (20000–30000 cpm/assay, GE Healthcare). The reaction was performed at room temperature for 15 min and then terminated by the addition of 0.2 M ZnSO4. The addition of 0.25 M BaSO4 precipitated the generated ^3H-GMP, whereas the unreacted ^3H-cGMP remained in solution. The radioactivity in the supernatant was measured in 2.5 mL with an Ultim Gold liquid scintillation counter. […] The IC50 values were calculated by nonlinear regression method by using GraphPad Prism 5.0 Software.

[1] = Oxygen Radical Absorbance Capacity (ORAC-FL) assay; details: Trolox as standard
Method: The assays were performed in 75 mM PBS (pH 7.4) and all the tested compounds were dissolved in DMSO and diluted with the PBS. Trolox was used as a standard (1–10 μM final concentration). The tested compounds at different concentrations (20 μL, final concentration: 2 μM) and fluorescein (FL, 120 μL, final concentration: 300 nM) were placed in the wells of a black 96-well plate. The mixture was incubated for 10 min at 37 °C and then, APPH solution (60 μL, final concentration: 12 mM diluted by 75 mM PBS) was added rapidly. […] A blank (FL + AAPH), with PBS replacing the compounds and Trolox was used for calibration in each assay. The compounds were tested at different concentrations (0.5–10 μM). The experiments were performed in three independent runs for each sample. The fluorescence measurements were normalized to that of the blank (without antioxidant). The area under the fluorescence decay curve (AUC) was calculated using the following equation (eq. 2):
where f0 is the fluorescence reading at 0 min and fi is the fluorescence reading at time i. The net AUC was calculated by the expression AUCsample − AUCblank. Regression equations between net AUC and Trolox concentrations were calculated. The final results were expressed in μM of Trolox equivalent/μM of pure compounds.

Aβ1-42 fibrils = molecular target: T2, Aβ1-42 fibrils (Homo sapiens, UniProt P05067); experiment: ThT assay, disaggregation of Cu^2+-induced Aβ1-42 fibrils; assay type: biochemical; details: [Aβ1-42] = 25 μM, compound 50 μM, [Cu^2+] = 25 μM, additional 24 h
T2 construct: purchased Sigma
T2 sequence (P05067 672-713 limits assumed): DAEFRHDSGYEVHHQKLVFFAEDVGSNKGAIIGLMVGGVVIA
Method: For assaying the disaggregation of the copper (II)-induced Aβ1-42 fibrils, the Aβ1-42 stock solution was first diluted in HEPES buffer ([…], pH 6.6). The mixture of the peptide (10 μL, 25 μM final concentration) and copper (II) (10 μL, 25 μM final concentration) was then incubated at 37 °C for 24 h. Then, the test compound (10 μL, 50 μM final concentration) was added and incubated at 37 °C for an additional 24 h. Thereafter, 30 μL of the sample was diluted to a final volume of 200 μL with 50 mM glycine-NaOH buffer (pH 8.0) containing thioflavin-T (5 μM) in the dark. The detection method used was the same as that described above.

Aβ1-42 [2] = molecular target: T3, Aβ1-42 (Homo sapiens, UniProt P05067); experiment: ThT assay, inhibition of Cu^2+-induced Aβ1-42 aggregation; assay type: biochemical; details: [Aβ1-42] = 25 μM, compound 50 μM, [Cu^2+] = 25 μM, 37 °C, 24 h
T3 construct: the Aβ1-42 stock solution was diluted with HEPES buffer; purchased Sigma
T3 sequence (P05067 672-713 limits assumed): as above
Method: The Aβ1−42 sample (Sigma, US) was pretreated with hexafluoro-2-propanol (HFIP) and dissolved in ammonium hydroxide (1% v/v) to prepare a stock solution (2000 μM) that was aliquoted into small samples and stored at −80 °C.

Aβ1-42 [3] = molecular target: T3, Aβ1-42; experiment: Transmission electron microscopy (TEM) assay of Aβ1-42; assay type: biochemical; details: [Aβ1-42] = 25 μM, compound 50 μM, [Cu^2+] = 25 μM, 37 °C, 24 h
Method: The assays were performed as reported previously. For the TEM assay of copper (II)-induced Aβ1-42 aggregation and the disaggregation of the fibrils, the samples were pretreated as described for the ThT assay. Samples (10 μL) were placed on a carbon-coated copper/rhodium grid for 2 min. Then, each grid was stained with uranyl acetate (1%, 5 μL) for 2 min. After the excess staining solution was drained off, the specimen was transferred for imaging by a transmission electron microscope (JEOL JEM-1400).

[4] = PAMPA-BBB in vitro blood-brain barrier permeation assay; assay type: in vitro ADME; details: for Papp at 10 h, 100 μg/mL: PAMPA, read-out: Permeability; for prediction of penetration into the CNS: from PAMPA-BBB Pe
Method: The blood–brain barrier penetration capacity of the compounds was evaluated by using the parallel artificial membrane permeation assay (PAMPA). […] The porcine brain lipid (PBL) was obtained from Avanti Polar Lipids. The donor microplate (PVDF membrane, pore size of 0.45 nm) and the acceptor microplate were from Millipore. The acceptor 96-well microplate (COSTAR) was filled with 300 μL of a PBS/EtOH mixture (7:3) and the filter membrane was impregnated with 4 μL of PBL in dodecane (20 mg/mL). The compounds were dissolved in DMSO at a concentration of 5 mg/mL and diluted with the PBS/EtOH mixture (7:3) to a concentration of 100 μg /mL. Then, 200 μL of this solution was added to the donor wells and the wells were carefully placed on the acceptor plate, which was then incubated for 10 h at 25 °C in a vibrationless environment. After the incubation, the donor plate was removed and the concentration of compounds in the acceptor wells was determined with a UV plate reader (Flexstation 3). Each sample was analyzed at five wavelengths in four wells, and at least three independent runs were performed. The results are expressed as the mean ± standard deviation. In these experiments, 13 quality control standards of known BBB permeability were included to validate the analysis set.
where Vd is the volume in the donor well, Va is the volume in acceptor well, A is the filter area, t is the permeation time, [drug]acceptor is the absorbance of the compound in the acceptor well, and [drug]equilibrium is the theoretical equilibrium absorbance.

PDE7A1 (130–482) = molecular target: T4, PDE7A1 (130–482) (Homo sapiens, UniProt Q13946); experiment: PDE activity assay, PDE7A1 catalytic domain; assay type: biochemical
T4 construct: PDE7A1 (130–482)
T4 sequence (Q13946 130-482): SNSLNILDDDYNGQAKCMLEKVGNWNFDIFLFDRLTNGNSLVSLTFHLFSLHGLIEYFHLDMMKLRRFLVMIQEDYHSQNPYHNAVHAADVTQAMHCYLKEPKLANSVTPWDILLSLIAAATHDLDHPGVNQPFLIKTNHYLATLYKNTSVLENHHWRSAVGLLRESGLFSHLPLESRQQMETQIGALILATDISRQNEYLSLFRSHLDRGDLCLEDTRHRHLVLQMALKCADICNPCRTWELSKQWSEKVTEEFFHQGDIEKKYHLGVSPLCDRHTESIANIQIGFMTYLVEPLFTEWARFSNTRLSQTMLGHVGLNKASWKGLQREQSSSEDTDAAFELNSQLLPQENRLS
Method: as §1

PDE2A3 (580–941) = molecular target: T5, PDE2A3 (580–941) (Homo sapiens, UniProt O00408); experiment: PDE activity assay, PDE2A3 catalytic domain; assay type: biochemical
T5 construct: PDE2A3 (580–941)
T5 sequence (O00408 580-941): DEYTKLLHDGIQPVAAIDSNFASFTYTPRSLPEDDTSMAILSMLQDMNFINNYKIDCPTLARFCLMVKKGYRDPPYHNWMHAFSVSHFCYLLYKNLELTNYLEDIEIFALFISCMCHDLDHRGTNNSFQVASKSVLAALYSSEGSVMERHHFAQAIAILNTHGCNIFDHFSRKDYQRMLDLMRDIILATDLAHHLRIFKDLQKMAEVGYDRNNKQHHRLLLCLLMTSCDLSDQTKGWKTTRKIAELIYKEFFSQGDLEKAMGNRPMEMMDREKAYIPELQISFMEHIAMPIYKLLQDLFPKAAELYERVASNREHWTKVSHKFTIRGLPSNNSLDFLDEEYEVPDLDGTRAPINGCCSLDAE
Method: as §1

PDE4D2 (86–413) = molecular target: T6, PDE4D2 (86–413) (Homo sapiens, UniProt Q08499); experiment: PDE activity assay, PDE4D2 catalytic domain; assay type: biochemical
T6 construct: PDE4D2 (86–413)
T6 sequence (Q08499 388-715): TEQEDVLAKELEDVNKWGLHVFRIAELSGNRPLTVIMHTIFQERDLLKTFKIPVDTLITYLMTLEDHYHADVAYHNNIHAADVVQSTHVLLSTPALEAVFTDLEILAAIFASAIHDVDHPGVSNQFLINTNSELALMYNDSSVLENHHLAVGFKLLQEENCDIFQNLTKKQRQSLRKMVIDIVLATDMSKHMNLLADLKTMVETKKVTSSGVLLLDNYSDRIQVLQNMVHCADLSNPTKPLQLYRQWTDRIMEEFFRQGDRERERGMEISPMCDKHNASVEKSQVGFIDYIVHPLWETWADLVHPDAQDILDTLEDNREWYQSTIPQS
Method: as §1

PDE5A1 (535–860) = PDE5A1 (535–860) (Homo sapiens, UniProt O76074); experiment: PDE activity assay, PDE5A1 catalytic domain; assay type: biochemical
Method: as §1

PDE10A2 (448–789) = molecular target: T7, PDE10A2 (448–789) (Homo sapiens, UniProt Q9Y233); experiment: PDE activity assay, PDE10A2 catalytic domain; assay type: biochemical
T7 construct: PDE10A2 (448–789)
T7 sequence (Q9Y233 714-1055): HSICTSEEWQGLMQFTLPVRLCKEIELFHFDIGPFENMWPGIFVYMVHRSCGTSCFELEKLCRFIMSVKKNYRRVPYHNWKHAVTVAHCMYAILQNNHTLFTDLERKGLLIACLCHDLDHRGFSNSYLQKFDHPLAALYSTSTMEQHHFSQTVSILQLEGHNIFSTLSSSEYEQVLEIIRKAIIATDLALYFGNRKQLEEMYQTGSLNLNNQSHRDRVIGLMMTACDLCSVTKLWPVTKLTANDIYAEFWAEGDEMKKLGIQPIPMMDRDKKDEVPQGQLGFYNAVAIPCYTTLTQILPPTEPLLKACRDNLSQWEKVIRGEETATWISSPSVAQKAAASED
Method: as §1

PDE1B2 (10–487) = molecular target: T8, PDE1B2 (10–487) (Homo sapiens, UniProt Q01064); experiment: PDE activity assay, PDE1B2 catalytic domain; assay type: biochemical
T8 construct: PDE1B2 (10–487)
T8 sequence (Q01064 10-487 isoform Q01064-2): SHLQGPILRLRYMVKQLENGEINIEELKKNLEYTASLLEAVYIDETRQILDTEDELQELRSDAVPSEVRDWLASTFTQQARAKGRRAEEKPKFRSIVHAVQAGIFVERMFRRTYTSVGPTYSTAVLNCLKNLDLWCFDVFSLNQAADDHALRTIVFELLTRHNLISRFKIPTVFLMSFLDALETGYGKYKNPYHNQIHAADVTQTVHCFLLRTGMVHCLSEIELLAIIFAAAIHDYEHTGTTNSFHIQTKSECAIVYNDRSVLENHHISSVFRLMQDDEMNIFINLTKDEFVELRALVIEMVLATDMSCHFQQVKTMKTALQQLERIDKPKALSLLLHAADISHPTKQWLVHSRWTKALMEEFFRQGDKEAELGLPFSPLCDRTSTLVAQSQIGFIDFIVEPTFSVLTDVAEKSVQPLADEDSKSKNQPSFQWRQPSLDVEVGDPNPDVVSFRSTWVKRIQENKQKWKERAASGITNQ
Method: as §1

[5] = Lipid-water distribution coefficient, shake-flask 1-octanol/water; assay type: physicochemical; details: 1-octanol/water (1:1), means of at least three independent tests
PDE8A1 (480–820) = molecular target: T9, PDE8A1 (480–820) (Homo sapiens, UniProt O60658); experiment: PDE activity assay, PDE8A1 catalytic domain; assay type: biochemical
T9 construct: PDE8A1 (480–820)
T9 sequence (O60658 480-820): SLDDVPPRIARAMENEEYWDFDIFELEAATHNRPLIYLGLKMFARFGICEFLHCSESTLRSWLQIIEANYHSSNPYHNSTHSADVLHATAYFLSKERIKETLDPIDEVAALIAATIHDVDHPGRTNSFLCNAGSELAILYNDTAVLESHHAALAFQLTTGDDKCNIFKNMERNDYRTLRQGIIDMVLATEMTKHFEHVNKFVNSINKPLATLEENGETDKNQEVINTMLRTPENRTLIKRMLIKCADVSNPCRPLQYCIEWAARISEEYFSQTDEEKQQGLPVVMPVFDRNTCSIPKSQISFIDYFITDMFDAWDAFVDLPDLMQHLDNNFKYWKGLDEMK
Method: as §1

PDE3A (679–1087) = molecular target: T10, PDE3A (679–1087) (Homo sapiens, UniProt Q14432); experiment: PDE activity assay, PDE3A catalytic domain; assay type: biochemical
T10 construct: PDE3A (679–1087)
T10 sequence (Q14432 679-1087): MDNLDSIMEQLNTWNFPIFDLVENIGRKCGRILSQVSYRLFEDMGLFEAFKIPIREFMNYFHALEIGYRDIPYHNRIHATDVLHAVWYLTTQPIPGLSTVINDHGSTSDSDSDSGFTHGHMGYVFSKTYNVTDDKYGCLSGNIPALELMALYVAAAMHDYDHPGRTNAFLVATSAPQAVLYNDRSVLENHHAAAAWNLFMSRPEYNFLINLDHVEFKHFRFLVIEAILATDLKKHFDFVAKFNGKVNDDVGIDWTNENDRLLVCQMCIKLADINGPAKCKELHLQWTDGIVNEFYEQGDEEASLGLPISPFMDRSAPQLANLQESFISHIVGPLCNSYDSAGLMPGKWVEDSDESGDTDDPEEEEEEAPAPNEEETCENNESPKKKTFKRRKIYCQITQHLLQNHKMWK
Method: as §1

[6] = PBS:EtOH (70:30), mean ± SD of three independent experiments

| SMILES | IC50 (PDE9A2 (181–506)) [nM] | ORAC [1] | further results |
| --- | --- | --- | --- |
| COc1ccc(/C=N/[C@H](C)c2nc3c(cnn3C3CCOCC3)c(=O)[nH]2)c(O)c1 [Compound 14] | 12 ± 1 | 0.22 ± 0.12 μmol of Trolox equiv/μmol tested compound | – |
| C[C@@H](/N=C/c1cccc(Br)n1)c1nc2c(cnn2C2CCCC2)c(=O)[nH]1 [Compound 28] | 1160 ± 90 | 0 μmol of Trolox equiv/μmol tested compound | – |
| Oc1c(I)cc(Cl)c2cccnc12 [CQ, clioquinol, reference compound] | – | – | disaggregation of Cu^2+-induced Aβ1-42 fibrils (ThT) (Aβ1-42 fibrils): 50.9%; inhibitory ratio of Cu^2+-induced Aβ1-42 aggregation (ThT) (Aβ1-42 [2]): 52.5%; oxygen radical absorbance capacity, ORAC-FL value [1]: 0.62 ORAC-FL units; Aβ fibrils by TEM, disaggregation of preformed fibrils (Aβ1-42 [3]): drastically reduced the amount of Aβ fibrils; Aβ fibrils by TEM, inhibition of Cu^2+-induced aggregation (Aβ1-42 [3]): fewer Aβ fibrils were detected |
| C[C@@H](NCc1cc(Cl)ccc1O)c1nc2c(cnn2C2CCCC2)c(=O)[nH]1 [Compound 21] | 47 ± 5 | 5.84 ± 0.50 μmol of Trolox equiv/μmol tested compound | inhibitory ratio of Cu^2+-induced Aβ1-42 aggregation (ThT) (Aβ1-42 [2]): 65.7% |
| C[C@@H](NCc1cc(N(C)C)ccc1O)c1nc2c(cnn2C2CCCC2)c(=O)[nH]1 [Compound 24] | 47 ± 3 | 5.62 ± 0.02 μmol of Trolox equiv/μmol tested compound | – |
| C[C@H](NCc1ccccn1)c1nc2c(cnn2C2CCCC2)c(=O)[nH]1 [Compound 25] | 310 ± 13 | 0 μmol of Trolox equiv/μmol tested compound | – |
| CN(C)CCCN1c2ccccc2Sc2ccc(Cl)cc21 [Chlorpromazine, reference compound] | – | – | Papp at 10 h, 100 μg/mL [4]: 6 ± 0.3 ×10⁻⁶ cm/s |
| C[C@H](NCc1ccccc1O)c1nc2c(cnn2C2CCCC2)c(=O)[nH]1 [Compound 18] | 114 ± 7 | 4.51 ± 0.43 μmol of Trolox equiv/μmol tested compound | – |
| C[C@@H](NCc1cc(F)ccc1O)c1nc2c(cnn2C2CCCC2)c(=O)[nH]1 [Compound 22] | 31 ± 1 | 5.52 ± 0.51 μmol of Trolox equiv/μmol tested compound | Papp at 10 h, 100 μg/mL [4, 6]: 33.2 ± 4.76 ×10⁻⁶ cm/s; prediction of penetration into the CNS [4]: CNS+ (Compounds of high BBB permeation (CNS+) Pe > 4.7); IC50 (PDE7A1 (130–482)): > 40000 nM; fold of selectivity of PDE9 over PDE7A1 (PDE7A1 (130–482)): > 1278 fold; IC50 (PDE2A3 (580–941)): 13000 nM; fold of selectivity of PDE9 over PDE2A3 (PDE2A3 (580–941)): 421 fold; IC50 (PDE4D2 (86–413)): 11000 nM; fold of selectivity of PDE9 over PDE4D2 (PDE4D2 (86–413)): 355 fold; IC50 (PDE5A1 (535–860)): 1600 nM; fold of selectivity of PDE9 over PDE5A1 (PDE5A1 (535–860)): 50 fold; IC50 (PDE10A2 (448–789)): 33000 nM; IC50 (PDE1B2 (10–487)): 7000 nM; fold of selectivity of PDE9 over PDE1B2 (PDE1B2 (10–487)): 234 fold; logP at 30 min [5]: 1.51; IC50 (PDE8A1 (480–820)): > 50000 nM; fold of selectivity of PDE9 over PDE8A1 (PDE8A1 (480–820)): > 1598 fold; IC50 (PDE3A (679–1087)): > 10000 nM; fold of selectivity of PDE9 over PDE3A (PDE3A (679–1087)): 323 fold |
| C[C@@H](NCc1ccccn1)c1nc2c(cnn2C2CCCC2)c(=O)[nH]1 [Compound 26] | 77 ± 3 | 0 μmol of Trolox equiv/μmol tested compound | – |
| C[C@@H](/N=C/c1ccccc1O)c1nc2c(cnn2C2CCCC2)c(=O)[nH]1 [Compound 12] | 211 ± 6 | 0.23 ± 0.02 μmol of Trolox equiv/μmol tested compound | – |
| COc1cccc(CN[C@H](C)c2nc3c(cnn3C3CCCC3)c(=O)[nH]2)c1O [Compound 20] | 33 ± 4 | 3.50 ± 0.01 μmol of Trolox equiv/μmol tested compound | – |
| C[C@@H](NCc1ccccc1O)c1nc2c(cnn2C2CCCC2)c(=O)[nH]1 [Compound 15] | 58 ± 2 | 4.75 ± 0.72 μmol of Trolox equiv/μmol tested compound | – |
| COc1ccc(/C=N/[C@H](C)c2nc3c(cnn3C3CCCC3)c(=O)[nH]2)c(O)c1 [Compound 13] | 35 ± 3 | 0.15 ± 0.01 μmol of Trolox equiv/μmol tested compound | – |
| C[C@@H](NCc1cccc(Br)n1)c1nc2c(cnn2C2CCCC2)c(=O)[nH]1 [Compound 29] | 38 ± 3 | 0 μmol of Trolox equiv/μmol tested compound | inhibitory ratio of Cu^2+-induced Aβ1-42 aggregation (ThT) (Aβ1-42 [2]): 59.1% |
| Cc1cccc(CN[C@H](C)c2nc3c(cnn3C3CCCC3)c(=O)[nH]2)n1 [Compound 27] | 60 ± 2 | 0 μmol of Trolox equiv/μmol tested compound | – |
| COc1ccc(O)c(CN[C@H](C)c2nc3c(cnn3C3CCCC3)c(=O)[nH]2)c1 [Compound 19] | 33 ± 3 | 3.54 ± 0.25 μmol of Trolox equiv/μmol tested compound | – |
| C[C@@H](NCc1cc([N+](=O)[O-])ccc1O)c1nc2c(cnn2C2CCCC2)c(=O)[nH]1 [Compound 23] | 36 ± 4 | 1.02 ± 0.05 μmol of Trolox equiv/μmol tested compound | – |
| COc1ccc2[nH]cc(CCNC(C)=O)c2c1 [melatonin, reference compound] | – | – | oxygen radical absorbance capacity, ORAC-FL value [1]: 2.00 ORAC-FL units |
| COc1ccc(CN[C@H](C)c2nc3c(cnn3C3CCOCC3)c(=O)[nH]2)c(O)c1 [Compound 17] | 51 ± 2 | 5.13 ± 0.22 μmol of Trolox equiv/μmol tested compound | Papp at 10 h, 100 μg/mL [4, 6]: 6.54 ± 0.76 ×10⁻⁶ cm/s; prediction of penetration into the CNS [4]: CNS+ (Compounds of high BBB permeation (CNS+) Pe > 4.7) |
